How the values were obtained:
[1] = target: T1, PctRe (propionyl-CoA transferase of Ralstonia eutropha) (Cupriavidus necator, UniProt Q0K874); test: enzymatic CoA transfer, product by HPLC/MS; type: biochemical; details: 2 mM TDP, 1 mM acetyl-CoA, 20 ug PctRe in 1 ml, 100 mM Tris/HCl pH 8.0, 30 °C, 45 min
T1 construct: gene pct; recombinant from pET-19b::pctRe in E. coli BL21 (DE3) pLysS; N-terminal His-tag; Ni-Sepharose purified
T1 sequence (Q0K874 1-542): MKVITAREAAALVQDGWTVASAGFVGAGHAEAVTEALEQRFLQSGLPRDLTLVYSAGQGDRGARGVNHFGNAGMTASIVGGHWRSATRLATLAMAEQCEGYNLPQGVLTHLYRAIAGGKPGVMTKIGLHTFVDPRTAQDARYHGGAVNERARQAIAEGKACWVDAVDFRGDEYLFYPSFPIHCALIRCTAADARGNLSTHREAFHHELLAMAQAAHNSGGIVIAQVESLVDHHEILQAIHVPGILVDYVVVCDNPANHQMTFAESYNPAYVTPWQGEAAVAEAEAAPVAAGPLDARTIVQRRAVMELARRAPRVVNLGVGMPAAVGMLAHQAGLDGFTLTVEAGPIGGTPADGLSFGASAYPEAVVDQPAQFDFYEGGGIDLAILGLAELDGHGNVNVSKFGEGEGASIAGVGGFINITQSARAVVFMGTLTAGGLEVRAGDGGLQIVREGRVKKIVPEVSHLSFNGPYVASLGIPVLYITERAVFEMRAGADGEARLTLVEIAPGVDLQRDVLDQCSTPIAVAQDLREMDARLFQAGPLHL

Ech-20 (VPARA_05520) = target: T2, Ech-20 (VPARA_05520) (Variovorax paradoxus, UniProt A0A0H2MCT8); test: thermal shift assay, SYPRO Orange; type: binding; details: 2 uM protein, 2 mM ligand, 100 mM Tris/HCl pH 8.0; increased stability; no shift with TDP
T2 construct: recombinant from pET-32a(+)::ech-20 in E. coli BL21 (DE3) pLysS; Ni-Sepharose purified
T2 sequence (A0A0H2MCT8 1-154): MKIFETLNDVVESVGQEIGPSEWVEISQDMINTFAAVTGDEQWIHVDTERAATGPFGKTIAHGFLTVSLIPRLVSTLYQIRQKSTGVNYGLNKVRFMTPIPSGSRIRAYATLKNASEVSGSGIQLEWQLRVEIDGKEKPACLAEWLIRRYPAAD

## CC(=O)SCCNC(=O)CCNC(=O)[C@H](O)C(C)(C)COP(=O)(O)OP(=O)(O)OC[C@H]1O[C@@H](n2cnc3c(N)ncnc32)[C@H](O)[C@@H]1OP(=O)(O)O [acetyl-CoA]
[1]; CoA donor
  enzymatic CoA transfer, product by HPLC/MS: transfer of CoA from acetyl-CoA to TDP was accomplished using recombinant PctRe

## CC(C)(COP(=O)(O)OP(=O)(O)OC[C@H]1O[C@@H](n2cnc3c(N)ncnc32)[C@H](O)[C@@H]1OP(=O)(O)O)[C@@H](O)C(=O)NCCC(=O)NCCSC(=O)CCSCCC(=O)O [TDP-CoA]
Ech-20 (VPARA_05520)
  shift in the melting temperature: a shift in the melting temperature of Ech-20 in the presence of TDP-CoA was detected

## O=C(O)CCSCCC(=O)O [TDP]
[1]
  enzymatic CoA transfer, product by HPLC/MS: transfer of CoA from acetyl-CoA to TDP was accomplished using recombinant PctRe
